Test results reported in US12685312B2, “Sulfonamide apyrase inhibitors” (Texas Crop Science, Inc., priority 2022, dated 2026).

Tested on: apyrase
Experiment: Screen for apyrase inhibitors (Method 1, in vitro phosphate-release absorbance assay)
Type: biochemical
Settings: inhibitor conc at 1 mM stock, 1 hr room temperature, absorbance 630 nm; rounded average of two assay results
In short: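 Phosphate-release colorimetric assay (Windsor method) in 60 mM Hepes, 3 mM MgCl2, 3 mM CaCl2, 3 mM ATP, pH 6.5, with compound or DMSO control added. Released phosphate developed with ammonium molybdate and ascorbic acid/TCA, then stopped with citrate/acetic acid.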

% Inhibition of Apyrase [%] | SMILES
58 | CC1Cc2ccccc2N1S(=O)(=O)c1cccc(C(=O)Nc2ccc(Oc3ccccc3)cc2)c1 (stereo not shown) [I-483, 3-((2-methylindolin-1-yl)sulfonyl)-N-(4-phenoxyphenyl)benzamide]
58 | CC1Cc2ccccc2N1S(=O)(=O)c1cccc(C(=O)Nc2cccc3cccnc23)c1 (stereo not shown) [I-484, 3-((2-methylindolin-1-yl)sulfonyl)-N-(quinolin-8-yl)benzamide]
58 | O=C(c1cccc(S(=O)(=O)N2CCCc3ccccc32)c1)N1CCc2ccccc21 [I-485, (3-((3,4-dihydroquinolin-1(2H)-yl)sulfonyl)phenyl)(indolin-1-yl)methanone]
58 | C=CCN(c1ccc(Cl)cc1)S(=O)(=O)c1ccc(Cl)c(C(=O)N2CCc3ccccc32)c1 [I-486, N-allyl-4-chloro-N-(4-chlorophenyl)-3-(indoline-1-carbonyl)benzenesulfonamide]
58 | CC1Cc2ccccc2N1S(=O)(=O)c1cccc(C(=O)Nc2cccc(Oc3ccccc3)c2)c1 (stereo not shown) [I-487, 3-((2-methylindolin-1-yl)sulfonyl)-N-(3-phenoxyphenyl)benzamide]
58 | O=C(Nc1cc(F)ccc1F)c1cccc(S(=O)(=O)N2CCc3ccccc32)c1 [I-488, N-(2,5-difluorophenyl)-3-(indolin-1-ylsulfonyl)benzamide]
58 | Cc1cccc(NS(=O)(=O)c2ccc(C)c(C(=O)N3CCCc4ccccc43)c2)c1 [I-489, 4-methyl-3-(1,2,3,4-tetrahydroquinoline-1-carbonyl)-N-(m-tolyl)benzenesulfonamide]
58 | O=C(c1cc(S(=O)(=O)Nc2ccc(Cl)cc2)ccc1Cl)N1CCc2ccccc21 [I-490, 4-chloro-N-(4-chlorophenyl)-3-(indoline-1-carbonyl)benzenesulfonamide]
58 | Cc1cccc(NS(=O)(=O)c2cccc(C(=O)Nc3ccc(Br)c(C)c3)c2)c1 [I-491, N-(4-bromo-3-methylphenyl)-3-(N-(m-tolyl)sulfamoyl)benzamide]
58 | O=C(Nc1ccccc1N1CCCC1)c1cccc(S(=O)(=O)N2CCc3ccccc32)c1 [I-492, 3-(indolin-1-ylsulfonyl)-N-(2-(pyrrolidin-1-yl)phenyl)benzamide]
58 | Cc1cc(F)c2c(c1)CCCN2C(=O)c1cccc(S(=O)(=O)N2CCc3ccccc32)c1 [I-493, (8-fluoro-6-methyl-3,4-dihydroquinolin-1(2H)-yl)(3-(indolin-1-ylsulfonyl)phenyl)methanone]
57 | CC1Cc2ccccc2N1S(=O)(=O)c1cccc(C(=O)N2CCc3cccc(F)c32)c1 (stereo not shown) [I-494, (7-fluoroindolin-1-yl)(3-((2-methylindolin-1-yl)sulfonyl)phenyl)methanone]
57 | O=C(c1ccc(Cl)c(S(=O)(=O)N2CCc3ccccc32)c1)N1CCc2cc([N+](=O)[O-])ccc21 [I-495, (4-chloro-3-(indolin-1-ylsulfonyl)phenyl)(5-nitroindolin-1-yl)methanone]
57 | O=C(Nc1cc2c(cc1Cl)OCO2)c1ccc(Cl)c(S(=O)(=O)N2CCc3ccccc32)c1 [I-496, 4-chloro-N-(6-chlorobenzo[d][1,3]dioxol-5-yl)-3-(indolin-1-ylsulfonyl)benzamide]
57 | Cc1ccc(F)c(NC(=O)c2cccc(S(=O)(=O)N3c4ccccc4CC3C)c2)c1 (stereo not shown) [I-497, N-(2-fluoro-5-methylphenyl)-3-((2-methylindolin-1-yl)sulfonyl)benzamide]
57 | O=C(c1cccc(S(=O)(=O)N2CCc3ccccc32)c1)N1CCCc2ccccc21 [I-498, (3,4-dihydroquinolin-1(2H)-yl)(3-(indolin-1-ylsulfonyl)phenyl)methanone]
57 | COc1ccc(S(=O)(=O)N2CCc3ccccc32)cc1C(=O)Nc1cccc(C)c1 [I-499, 5-(indolin-1-ylsulfonyl)-2-methoxy-N-(m-tolyl)benzamide]
57 | COc1cccc(NC(=O)c2ccc(Cl)c(S(=O)(=O)N3CCc4ccccc43)c2)c1 [I-500, 4-chloro-3-(indolin-1-ylsulfonyl)-N-(3-methoxyphenyl)benzamide]
57 | Cc1ccc(NC(=O)c2cccc(S(=O)(=O)N3CCc4ccccc43)c2)cc1 [I-501, 3-(indolin-1-ylsulfonyl)-N-(p-tolyl)benzamide]
57 | Cc1ccc(NC(=O)c2cccc(S(=O)(=O)N(C)c3ccc(C)cc3)c2)cc1 [I-502, 3-(N-methyl-N-(p-tolyl)sulfamoyl)-N-(p-tolyl)benzamide]
57 | O=C(Nc1ccc(Cl)cc1)c1cccc(S(=O)(=O)N2CCc3ccccc32)c1 [I-503, N-(4-chlorophenyl)-3-(indolin-1-ylsulfonyl)benzamide]
57 | Cc1ccc(N(C)S(=O)(=O)c2cccc(C(=O)Nc3ccc4c(c3)CCC4)c2)cc1 [I-504, N-(2,3-dihydro-1H-inden-5-yl)-3-(N-methyl-N-(p-tolyl)sulfamoyl)benzamide]

% Inhibition of Apyrase [%] | SMILES
57 | COc1ccc(S(=O)(=O)N2CCc3ccccc32)cc1C(=O)Nc1ccc(C(F)(F)F)cc1 [I-505, 5-(indolin-1-ylsulfonyl)-2-methoxy-N-(4-(trifluoromethyl)phenyl)benzamide]
57 | CCOC(=O)c1c(NC(=O)c2cccc(S(=O)(=O)Nc3ccc(Cl)cc3)c2)sc2c1CCCC2 [I-506, ethyl 2-(3-(N-(4-chlorophenyl)sulfamoyl)benzamido)-4,5,6,7-tetrahydrobenzo[b]thiophene-3-carboxylate]
57 | CCOC(=O)c1c(NC(=O)c2cccc(S(=O)(=O)Nc3cccc(Cl)c3)c2)sc2c1CCCC2 [I-507, ethyl 2-(3-(N-(3-chlorophenyl)sulfamoyl)benzamido)-4,5,6,7-tetrahydrobenzo[b]thiophene-3-carboxylate]
57 | Cc1ccc(NS(=O)(=O)c2cccc(C(=O)Nc3c(C)cc(C)cc3C)c2)c(C)c1 [I-508, 3-(N-(2,4-dimethylphenyl)sulfamoyl)-N-mesitylbenzamide]
56 | COc1ccc2c(c1)CCCN2C(=O)c1cccc(S(=O)(=O)N2CCc3ccccc32)c1 [I-509, (3-(indolin-1-ylsulfonyl)phenyl)(6-methoxy-3,4-dihydroquinolin-1(2H)-yl)methanone]
56 | Cc1cccc2c1N(C(=O)c1cccc(S(=O)(=O)N3CCc4ccccc43)c1)CCC2 [I-510, (3-(indolin-1-ylsulfonyl)phenyl)(8-methyl-3,4-dihydroquinolin-1(2H)-yl)methanone]
56 | COc1ccc(S(=O)(=O)N2CCc3ccccc32)cc1C(=O)Nc1ccc2c(c1)OCO2 [I-511, N-(benzo[d][1,3]dioxol-5-yl)-5-(indolin-1-ylsulfonyl)-2-methoxybenzamide]
56 | O=C(Nc1ccc(F)cc1)c1cccc(S(=O)(=O)N2CCc3ccccc32)c1 [I-512, N-(4-fluorophenyl)-3-(indolin-1-ylsulfonyl)benzamide]
56 | O=C(Nc1ccc(F)cc1)c1ccc(Cl)c(S(=O)(=O)N2CCc3ccccc32)c1 [I-513, 4-chloro-N-(4-fluorophenyl)-3-(indolin-1-ylsulfonyl)benzamide]
56 | COc1ccc(NC(=O)c2cccc(S(=O)(=O)N(C)c3ccc(OC)cc3)c2)cc1 [I-514, N-(4-methoxyphenyl)-3-(N-(4-methoxyphenyl)-N-methylsulfamoyl)benzamide]
56 | O=C(Nc1cccc(Cl)c1)c1cccc(S(=O)(=O)N2CCc3ccccc32)c1 [I-515, N-(3-chlorophenyl)-3-(indolin-1-ylsulfonyl)benzamide]
56 | C=CCN(c1ccccc1Cl)S(=O)(=O)c1cc(C(=O)N2CCc3ccccc32)ccc1Cl [I-516, N-allyl-2-chloro-N-(2-chlorophenyl)-5-(indoline-1-carbonyl)benzenesulfonamide]
56 | Cc1ccc(F)cc1NC(=O)c1cccc(S(=O)(=O)N2CCc3ccccc32)c1 [I-517, N-(5-fluoro-2-methylphenyl)-3-(indolin-1-ylsulfonyl)benzamide]
56 | Cc1cccc(NC(=O)c2cc(S(=O)(=O)Nc3cccc(C)c3)ccc2Cl)c1 [I-518, 2-chloro-N-(m-tolyl)-5-(N-(m-tolyl)sulfamoyl)benzamide]
56 | O=C(Nc1ccc(Cl)cc1Cl)c1cccc(S(=O)(=O)Nc2ccc(Cl)cc2)c1 [I-519, 3-(N-(4-chlorophenyl)sulfamoyl)-N-(2,4-dichlorophenyl)benzamide]
56 | COc1ccc(Cl)cc1NS(=O)(=O)c1cccc(C(=O)N2CCc3ccccc32)c1 [I-520, N-(5-chloro-2-methoxyphenyl)-3-(indoline-1-carbonyl)benzenesulfonamide]
56 | O=C(c1cccc(S(=O)(=O)Nc2ccc(OCc3ccccc3)cc2)c1)N1CCc2ccccc21 [I-521, N-(4-(benzyloxy)phenyl)-3-(indoline-1-carbonyl)benzenesulfonamide]
55 | CC1Cc2ccccc2N1S(=O)(=O)c1cccc(C(=O)Nc2ccc3c(c2)OCO3)c1 (stereo not shown) [I-522, N-(benzo[d][1,3]dioxol-5-yl)-3-((2-methylindolin-1-yl)sulfonyl)benzamide]
55 | O=C(Nc1ccc2c(c1)OCCO2)c1cccc(S(=O)(=O)N2CCc3ccccc32)c1 [I-523, N-(2,3-dihydrobenzo[b][1,4]dioxin-6-yl)-3-(indolin-1-ylsulfonyl)benzamide]
55 | O=C(Nc1ccc2c(c1)OCCO2)c1ccc(Cl)c(S(=O)(=O)N2CCc3ccccc32)c1 [I-524, 4-chloro-N-(2,3-dihydrobenzo[b][1,4]dioxin-6-yl)-3-(indolin-1-ylsulfonyl)benzamide]
55 | COc1ccc(S(=O)(=O)N2CCc3ccccc32)cc1C(=O)Nc1cccc(Br)c1 [I-525, N-(3-bromophenyl)-5-(indolin-1-ylsulfonyl)-2-methoxybenzamide]
